Assay results taken from patent US9409905B2, “Antibacterial compounds and methods for use” (PTC THERAPEUTICS, INC., priority 2011, dated 2016).
≈ marks a conversion by molar mass, not a printed value.

Key:
[1] = test system: Escherichia coli (E. coli) BAS849; assay: Antibacterial activity, microbroth dilution MIC (Table 1); type: cell-based; details: microbroth dilution, super sensitive Gram-negative E. coli BAS849, read-out: MIC, BAS849
Excerpt: (§1) The antibacterial activity from a microbroth dilution method may be presented as the minimum inhibitory concentration (MIC in μg/mL). The MIC value is the lowest concentration of drug which prevents macroscopically visible growth under test conditions.
(§2) Antibacterial activity of test compounds against the super sensitive Gram-negative Escherichia coli (E. coli) BAS849 bacterium, the control Gram-negative E. coli 25922 strain and the Gram-positive Staphylococcus aureus (S. aureus) 29213 bacterium are shown in Table 1.

[2] = test system: Staphylococcus aureus (S. aureus) 29213; assay: as above; type: cell-based; details: microbroth dilution, Gram-positive S. aureus 29213, read-out: MIC, 29213
Excerpt: as §1, §2

E. coli 25922 = assay: as above; type: cell-based, Escherichia coli; details: Escherichia coli; microbroth dilution; control Gram-negative E. coli 25922 strain; read-out: MIC, 25922
Excerpt: as §1, §2

E. coli LZ3111 = assay: Antibacterial activity, MIC, quinolone resistant strain (Table 2); type: cell-based; details: Escherichia coli, LZ3111, read-out: MIC LZ3111
Excerpt: as §1
Mutations in these regions are known to confer a high level resistance to the quinolone class of antibiotics.

SMILES | MIC [1] [µg/mL] | MIC [2] [µg/mL] | MIC (E. coli 25922) [µg/mL] | MIC (E. coli LZ3111) [µg/mL]
CCc1cc(C(=O)O)c(=O)[nH]c1-c1ccc2c(c1)c(CN(C)C)cn2C [Cpd 75, 6-(3-((dimethylamino)methyl)-1-methyl-1H-indol-5-yl)-5-ethyl-2-oxo-1,2-dihydropyridine-3-carboxylic acid] | 12.5 to 150 (≈ 35.4 to 424 µM) | 12.5 to 150 (≈ 35.4 to 424 µM) | 12.5 to 150 (≈ 35.4 to 424 µM) | 12.5 to 150 (≈ 35.4 to 424 µM)
CCc1c(-c2ccc3c(c2)cc(CN(C)C)n3C)[nH]c(=O)c(C(=O)O)c1C(=O)O [Cpd 111, 6-(2-((dimethylamino)methyl)-1-methyl-1H-indol-5-yl)-5-ethyl-2-oxo-1,2-dihydropyridine-3,4-dicarboxylic acid] | 12.5 to 150 (≈ 31.5 to 377 µM) | 12.5 to 150 (≈ 31.5 to 377 µM) | 12.5 to 150 (≈ 31.5 to 377 µM) | 12.5 to 150 (≈ 31.5 to 377 µM)
CCc1cc(C(=O)O)c(=O)[nH]c1-c1cnc2c(c1)c(C#N)cn2C [Cpd 59, 6-(3-cyano-1-methyl-1H-pyrrolo[2,3-b]pyridin-5-yl)-5-ethyl-2-oxo-1,2-dihydropyridine-3-carboxylic acid] | 12.5 to 150 (≈ 38.8 to 465 µM) | 12.5 to 150 (≈ 38.8 to 465 µM) | 12.5 to 150 (≈ 38.8 to 465 µM) | 12.5 to 150 (≈ 38.8 to 465 µM)
CCc1cc(C(=O)O)c(=O)[nH]c1-c1cc(C)c2c(c1)cc(CN(CC)CC)n2C [Cpd 104, 6-(2-((diethylamino)methyl)-1,7-dimethyl-1H-indol-5-yl)-5-ethyl-2-oxo-1,2-dihydropyridine-3-carboxylic acid] | < 1 | 12.5 to 150 (≈ 31.6 to 379 µM) | 3.5 to 12.5 (≈ 8.85 to 31.6 µM) | 12.5 to 150 (≈ 31.6 to 379 µM)
CCc1c(-c2ccc3c(c2)cc(CN2C[C@@H]4[C@H](C2)[C@H]4N(Cc2ccccc2)Cc2ccccc2)n3C)[nH]c(=O)c(C(=O)O)c1O [Cpd 196, 6-(2-(((1R,5S,6s)-6-(dibenzylamino)-3-azabicyclo[3.1.0]hexan-3-yl)methyl)-1-methyl-1H-indol-5-yl)-5-ethyl-4-hydroxy-2-oxo-1,2-dihydropyridine-3-carboxylic acid] | 3.5 to 12.5 (≈ 5.81 to 20.7 µM) | 12.5 to 150 (≈ 20.7 to 249 µM) | 12.5 to 150 (≈ 20.7 to 249 µM) | 12.5 to 150 (≈ 20.7 to 249 µM)
CCc1cc(C(=O)O)c(=O)[nH]c1-c1cnc2c(c1)OCCN2C [Cpd 58, 5-ethyl-6-(4-methyl-3,4-dihydro-2H-pyrido[3,2-b][1,4]oxazin-7-yl)-2-oxo-1,2-dihydropyridine-3-carboxylic acid] | 3.5 to 12.5 (≈ 11.1 to 39.6 µM) | 12.5 to 150 (≈ 39.6 to 476 µM) | 12.5 to 150 (≈ 39.6 to 476 µM) | 12.5 to 150 (≈ 39.6 to 476 µM)
CCc1cc(C(=O)O)c(=O)[nH]c1-c1ccc2c(c1)cc(C1CNCCN1C)n2C.Cl.Cl (stereo not drawn) [Cpd 71, 5-ethyl-6-(1-methyl-2-(1-methylpiperazin-2-yl)-1H-indol-5-yl)-2-oxo-1,2-dihydropyridine-3-carboxylic acid dihydrochloride] | 3.5 to 12.5 | 12.5 to 150 | 12.5 to 150 | 12.5 to 150
CCc1c(-c2ccc3c(c2)cc(CN(C)CCOC)n3C)[nH]c(=O)c(C(=O)O)c1O [Cpd 300, 5-ethyl-4-hydroxy-6-(2-(((2-methoxyethyl)(methyl)amino)methyl)-1-methyl-1H-indol-5-yl)-2-oxo-1,2-dihydropyridine-3-carboxylic acid] | < 1 | 12.5 to 150 (≈ 30.2 to 363 µM) | 3.5 to 12.5 (≈ 8.46 to 30.2 µM) | 12.5 to 150 (≈ 30.2 to 363 µM)
CCc1cc(C(=O)O)c(=O)[nH]c1-c1ccc2c(c1)N(C)CCN2C [Cpd 56, 6-(1,4-dimethyl-1,2,3,4-tetrahydroquinoxalin-6-yl)-5-ethyl-2-oxo-1,2-dihydropyridine-3-carboxylic acid] | 3.5 to 12.5 (≈ 10.7 to 38.2 µM) | 12.5 to 150 (≈ 38.2 to 458 µM) | 12.5 to 150 (≈ 38.2 to 458 µM) | 12.5 to 150 (≈ 38.2 to 458 µM)
CCc1cc(C(=O)O)c(=O)[nH]c1-c1ccc2c(c1)cc(CNC(C)(C)C)n2C [Cpd 113, 6-(2-((tert-butylamino)methyl)-1-methyl-1H-indol-5-yl)-5-ethyl-2-oxo-1,2-dihydropyridine-3-carboxylic acid] | < 1 | 12.5 to 150 (≈ 32.8 to 393 µM) | < 1 | 12.5 to 150 (≈ 32.8 to 393 µM)
CCc1cc(C(=O)O)c(=O)[nH]c1-c1cc(F)c2c(c1)cc(CN1CCCCC1)n2C [Cpd 102, 5-ethyl-6-(7-fluoro-1-methyl-2-(piperidin-1-ylmethyl)-1H-indol-5-yl)-2-oxo-1,2-dihydropyridine-3-carboxylic acid] | < 1 | 12.5 to 150 (≈ 30.4 to 365 µM) | 3.5 to 12.5 (≈ 8.51 to 30.4 µM) | 12.5 to 150 (≈ 30.4 to 365 µM)
CCc1c(-c2ccc3c(c2)cc(CNCc2ccccc2C)n3C)[nH]c(=O)c(C(=O)O)c1O [Cpd 295, 5-ethyl-4-hydroxy-6-(1-methyl-2-((2-methylbenzylamino)methyl)-1H-indol-5-yl)-2-oxo-1,2-dihydropyridine-3-carboxylic acid] | < 1 | 1 to 3.5 (≈ 2.24 to 7.86 µM) | 3.5 to 12.5 (≈ 7.86 to 28.1 µM) | 12.5 to 150 (≈ 28.1 to 337 µM)
CCc1c(-c2ccc3c(c2)cc(CN(C)Cc2cccnc2)n3C)[nH]c(=O)c(C(=O)O)c1O.Cl [Cpd 224, 5-ethyl-4-hydroxy-6-(1-methyl-2-((methyl(pyridin-3-ylmethyl)amino)methyl)-1H-indol-5-yl)-2-oxo-1,2-dihydropyridine-3-carboxylic acid hydrochloride] | < 1 | 3.5 to 12.5 | 1 to 3.5 | 12.5 to 150
CCc1cc(C(=O)O)c(=O)[nH]c1-c1ccc2c(c1)cc(CNC(C)(C)c1ccccc1)n2C [Cpd 115, 5-ethyl-6-(1-methyl-2-((2-phenylpropan-2-ylamino)methyl)-1H-indol-5-yl)-2-oxo-1,2-dihydropyridine-3-carboxylic acid] | < 1 | 1 to 3.5 (≈ 2.25 to 7.89 µM) | < 1 | 12.5 to 150 (≈ 28.2 to 338 µM)
CCc1cc(C(=O)O)c(=O)[nH]c1-c1ccc2c(c1)cc([C@H]1CCCN1C)n2C [Cpd 68, (R)-5-ethyl-6-(1-methyl-2-(1-methylpyrrolidin-2-yl)-1H-indol-5-yl)-2-oxo-1,2-dihydropyridine-3-carboxylic acid] | < 1 | 12.5 to 150 (≈ 32.9 to 395 µM) | 1 to 3.5 (≈ 2.64 to 9.22 µM) | 12.5 to 150 (≈ 32.9 to 395 µM)
CCc1cc(C(=O)O)c(=O)[nH]c1-c1ccc2c(c1)cc(CN1Cc3cccnc3C1)n2C [Cpd 135, 6-(2-((5H-pyrrolo[3,4-b]pyridin-6(7H)-yl)methyl)-1-methyl-1H-indol-5-yl)-5-ethyl-2-oxo-1,2-dihydropyridine-3-carboxylic acid] | < 1 | 12.5 to 150 (≈ 29.2 to 350 µM) | 3.5 to 12.5 (≈ 8.17 to 29.2 µM) | 12.5 to 150 (≈ 29.2 to 350 µM)
CC(C)c1c(-c2ccc3c(c2)cc(CN2CCCC2)n3C)[nH]c(=O)c(C(=O)O)c1O [Cpd 319, 4-hydroxy-5-isopropyl-6-(1-methyl-2-(pyrrolidin-1-ylmethyl)-1H-indol-5-yl)-2-oxo-1,2-dihydropyridine-3-carboxylic acid] | < 1 | 3.5 to 12.5 (≈ 8.55 to 30.5 µM) | 1 to 3.5 (≈ 2.44 to 8.55 µM) | 12.5 to 150 (≈ 30.5 to 366 µM)
CCc1cc(C(=O)O)c(=O)[nH]c1-c1cc2cc(CN3CCOCC3)n(C)c2cc1Cl [Cpd 91, 6-(6-chloro-1-methyl-2-(morpholinomethyl)-1H-indol-5-yl)-5-ethyl-2-oxo-1,2-dihydropyridine-3-carboxylic acid] | 12.5 to 150 (≈ 29.1 to 349 µM) | 12.5 to 150 (≈ 29.1 to 349 µM) | 12.5 to 150 (≈ 29.1 to 349 µM) | 12.5 to 150 (≈ 29.1 to 349 µM)
CCc1cc(C(=O)O)c(=O)[nH]c1-c1ccc2nc(CN(C)C)cn2c1.Cl.Cl [Cpd 60, 6-(2-((dimethylamino)methyl)imidazo[1,2-a]pyridin-6-yl)-5-ethyl-2-oxo-1,2-dihydropyridine-3-carboxylic acid dihydrochloride] | 12.5 to 150 | 12.5 to 150 | 12.5 to 150 | 12.5 to 150
CCc1cc(C(=O)O)c(=O)[nH]c1-c1ccc2c(c1)cc(C1CNCCN1)n2C.Cl.Cl (stereo not drawn) [Cpd 70, 5-ethyl-6-(1-methyl-2-(piperazin-2-yl)-1H-indol-5-yl)-2-oxo-1,2-dihydropyridine-3-carboxylic acid dihydrochloride] | 3.5 to 12.5 | 12.5 to 150 | 12.5 to 150 | 12.5 to 150
CCc1c(-c2ccc3c(c2)cc(CNC(C)(C)c2ccccc2)n3C)[nH]c(=O)c(C(=O)O)c1O.Cl [Cpd 217, 5-ethyl-4-hydroxy-6-(1-methyl-2-((2-phenylpropan-2-ylamino)methyl)-1H-indol-5-yl)-2-oxo-1,2-dihydropyridine-3-carboxylic acid hydrochloride] | < 1 | 1 to 3.5 | 1 to 3.5 | 12.5 to 150
CCc1c(-c2ccc3c(c2)cc(CN(C)Cc2ccncc2)n3C)[nH]c(=O)c(C(=O)O)c1O.Cl [Cpd 225, 5-ethyl-4-hydroxy-6-(1-methyl-2-((methyl(pyridin-4-ylmethyl)amino)methyl)-1H-indol-5-yl)-2-oxo-1,2-dihydropyridine-3-carboxylic acid hydrochloride] | < 1 | 3.5 to 12.5 | 3.5 to 12.5 | 12.5 to 150
CCc1c(-c2ccc3c(c2)cc(CN2CCN(C(C)C)CC2)n3C)[nH]c(=O)c(C(=O)O)c1O [Cpd 174, 5-ethyl-4-hydroxy-6-(2-((4-isopropylpiperazin-1-yl)methyl)-1-methyl-1H-indol-5-yl)-2-oxo-1,2-dihydropyridine-3-carboxylic acid] | < 1 | 3.5 to 12.5 (≈ 7.73 to 27.6 µM) | 1 to 3.5 (≈ 2.21 to 7.73 µM) | 12.5 to 150 (≈ 27.6 to 331 µM)
CCc1cc(C(=O)O)c(=O)[nH]c1-c1ccc2c(c1)cc([C@@H]1CCCN1)n2C.Cl [Cpd 69, (S)-5-ethyl-6-(1-methyl-2-(pyrrolidin-2-yl)-1H-indol-5-yl)-2-oxo-1,2-dihydropyridine-3-carboxylic acid hydrochloride] | < 1 | 12.5 to 150 | 1 to 3.5 | 12.5 to 150
